Reference: US7897602B2, “Indolinone compounds as kinase inhibitors” (Development Center for Biotechnology, priority 2009, dated 2011)
pIC50: −log10 of the molar value.

Assays:
Aurora A kinase = molecular target: T1, Aurora A kinase (Homo sapiens, UniProt O14965); assay: Aurora A kinase assay ([γ-33P]ATP, CHOCKtide substrate); assay type: biochemical; details: for inhibition at 1 µM: 1.0 μM test compound
T1 construct: purchased Upstate
T1 sequence (O14965 1-403): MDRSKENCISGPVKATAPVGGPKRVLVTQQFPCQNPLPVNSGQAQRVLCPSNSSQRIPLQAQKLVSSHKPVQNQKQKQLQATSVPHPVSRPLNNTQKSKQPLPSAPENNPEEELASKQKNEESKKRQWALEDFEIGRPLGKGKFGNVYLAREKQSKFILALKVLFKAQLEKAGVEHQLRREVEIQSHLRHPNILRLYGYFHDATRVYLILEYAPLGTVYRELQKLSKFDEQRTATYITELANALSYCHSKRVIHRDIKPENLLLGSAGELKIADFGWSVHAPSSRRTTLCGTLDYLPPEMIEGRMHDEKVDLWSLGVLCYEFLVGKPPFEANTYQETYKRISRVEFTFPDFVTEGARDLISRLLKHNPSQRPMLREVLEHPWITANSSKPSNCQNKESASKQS
In short: (§1)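 Radiometric filter-binding format: 33P incorporation into CHOCKtide counted after acid stop and filtration. Reactions ran 30 min at 33 °C, Aurora A with 10 μM ATP, Aurora B with 40 μM ATP. IC50 taken as concentration giving half-maximal kinase inhibition.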

Aurora B kinase = molecular target: T2, Aurora B kinase (Homo sapiens, UniProt Q96GD4); assay: Aurora B kinase assay ([γ-33P]ATP, CHOCKtide substrate); assay type: biochemical; details: for inhibition at 1 µM: 1.0 μM test compound
T2 construct: purchased Cell signaling
In short: as §1

c-Met kinase = molecular target: T3, c-Met kinase (Homo sapiens, UniProt P08581); assay: c-Met kinase assay (33P incorporation into Poly(Glu-Tyr)); assay type: biochemical; details: 500 nM test compound
T3 construct: recombinant N-terminal 6×His-tagged c-Met kinase domain construct expressed from baculovirus; 6xHis (N); made in house
In short: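 Single-concentration test (500 nM compound) at 30° C for 30 min, pH 7.0 MOPS buffer with 100 μM ATP and [33P]-γ-ATP. Enzyme was baculovirus-expressed 6×His c-Met kinase domain (5 ng), substrate Poly(Glu-Tyr) 4:1. Inhibition percentage derived from filter-bound counts relative to DMSO control.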

COLO 205 tumor cells = assay: In vivo anti-cancer activity, COLO 205 subcutaneous tumor model; details: COLO 205 s.c. tumors in NOD/SCID mice; i.v. 5, 10 or 20 mg/kg qd × 14
Protocol: (§2) COLO 205 (1×10^6 cell/mouse) tumor cells were subcutaneously injected into the right flank of 5 week old male NOD/SCID mice (BioLASCO, Taiwan). Tumor volume was measured with a digital caliper once tumor was palpable (within 10 to 15 days after implantation). Compound treatment was started after 1-3 weeks when the tumors had reached an average volume of ˜50 to 100 mm^3. Mice were divided into 5 groups as listed in Table 4 below and were given intravenous injections with test compound at different dosage (5 mg/kg, 10 mg/kg, or 20 mg/kg), SU11248 (20 mg/kg, positive control), or vehicle control (DMSO:Cremophor:PBS (pH 7.4)=[…]) one time every day. The test compound, DCB-70055, was formulated in a solution of 5% DMSO, 10% Cremophor, and 85% PBS. The positive control, SU11248, was dissolved in 100% PBS. Body weights of the mice were measured every two to three days and the tumor sizes in different groups of mice were measured by digital caliper every two to three days.

[1] = Body weight of mice in the COLO 205 tumor study; assay type: in vivo; details: NOD/SCID mice with COLO 205 tumors; i.v. 5, 10 or 20 mg/kg qd × 14
Protocol: as §2

T3 sequence (P08581 1078-1345 limits assumed): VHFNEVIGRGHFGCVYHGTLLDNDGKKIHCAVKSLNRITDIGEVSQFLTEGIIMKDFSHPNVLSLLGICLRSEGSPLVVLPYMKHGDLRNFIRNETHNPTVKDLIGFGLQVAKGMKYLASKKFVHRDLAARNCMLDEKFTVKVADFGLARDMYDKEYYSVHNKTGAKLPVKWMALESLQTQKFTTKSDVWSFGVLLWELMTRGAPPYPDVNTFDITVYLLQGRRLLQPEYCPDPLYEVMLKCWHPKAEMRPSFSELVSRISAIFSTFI
T2 sequence (Q96GD4 whole entry): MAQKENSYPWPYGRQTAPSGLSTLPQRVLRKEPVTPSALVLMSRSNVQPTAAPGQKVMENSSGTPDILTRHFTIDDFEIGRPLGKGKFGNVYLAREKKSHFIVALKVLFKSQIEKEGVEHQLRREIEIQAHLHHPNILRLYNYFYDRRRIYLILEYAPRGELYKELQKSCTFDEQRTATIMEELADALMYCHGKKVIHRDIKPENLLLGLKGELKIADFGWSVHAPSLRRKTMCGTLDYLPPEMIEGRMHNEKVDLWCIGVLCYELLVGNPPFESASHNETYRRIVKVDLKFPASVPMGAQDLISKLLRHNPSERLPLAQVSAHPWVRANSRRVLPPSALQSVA

Structure (SMILES)	inhibition at 1 µM (Aurora A kinase)	inhibition at 1 µM (Aurora B kinase)	inhibition at 0.5 µM (c-Met kinase)	pIC50 (Aurora A kinase)	pIC50 (Aurora B kinase)	tumor growth in vivo (COLO 205 tumor cells)	weight loss (body weight) [1]
O=C(O)CCc1c(/C=C2\C(=O)Nc3ccc(NC(=O)c4ccc(F)cc4)cc32)[nH]c2c1C(=O)CCC2 [DCB-70076, (Z)-5-(4-fluorobenzamido)-3-((3-carboxyethyl-4-oxo-4,5,6,7-tetrahydro-1H-indol-2-yl)methylene)indolin-2-one]	40.7%	7.4%	21.8%				
O=C(O)CCc1c(/C=C2\C(=O)Nc3ccc(S(=O)(=O)Cc4ccccc4)cc32)[nH]c2c1C(=O)CCC2 [DCB-70071, (Z)-5-benzylsulfonyl-3-((3-carboxyethyl-4-oxo-4,5,6,7-tetrahydro-1H-indol-2-yl)methylene)indolin-2-one]	82.1%	11.2%	65.3%	6.57			
CCOC(=O)CCc1c(/C=C2\C(=O)Nc3cc(-c4cc5ccccc5s4)ccc32)[nH]c2c1C(=O)CCC2 [DCB-70079, (Z)-6-(benzo[b]thiophen-2-yl)-3-((3-(3-ethoxy-3-oxopropyl)-4-oxo-4,5,6,7-tetrahydro-1H-indol-2-yl)methylene)indolin-2-one]	8.8%	16%	21.4%				
CCOC(=O)CCc1c(/C=C2\C(=O)Nc3ccc(NC(=O)c4ccc([N+](=O)[O-])cc4)cc32)[nH]c2c1C(=O)CCC2 [DCB-70140, (Z)-ethyl 3-(2-((5-(4-nitrobenzamido)-2-oxoindolin-3-ylidene)methyl)-4-oxo-4,5,6,7-tetrahydro-1H-indol-3-yl)propanoate]	31.1%	5.2%	9.3%				
CCOC(=O)CCc1c(/C=C2\C(=O)Nc3ccc(NS(=O)(=O)CC)cc32)[nH]c2c1C(=O)CCC2 [DCB-70118, (Z)-5-ethylsulfonamido-3-((3-(3-ethoxy-3-oxopropyl)-4-oxo-4,5,6,7-tetrahydro-1H-indol-2-yl)methylene)indolin-2-one]	81.2%	3.2%	50.9%				
O=C(O)CCc1c(/C=C2\C(=O)Nc3ccc(NS(=O)(=O)c4ccc(F)cc4)cc32)[nH]c2c1C(=O)CCC2 [DCB-70145, (Z)-3-(2-((5-(4-fluorophenylsulfonamido)-2-oxoindolin-3-ylidene)methyl)-4-oxo-4,5,6,7-tetrahydro-1H-indol-3-yl)propanoic acid]	90.3%	75.2%	12.5%	7.34	6.35		
CCS(=O)(=O)Nc1ccc2c(c1)/C(=C/c1[nH]c3c(c1CCC(=O)O)C(=O)CCC3)C(=O)N2 [DCB-70119, (Z)-5-ethylsulfonamido-3-((3-carboxyethyl-4-oxo-4,5,6,7-tetrahydro-1H-indol-2-yl)methylene)indolin-2-one]	95.4%	7.3%	31.8%				
NS(=O)(=O)c1ccc2c(c1)/C(=C/c1[nH]c3c(c1CCC(=O)O)C(=O)CCC3)C(=O)N2 [DCB-70095, (Z)-5-sulfamoyl-3-((3-carboxyethyl-4-oxo-4,5,6,7-tetrahydro-1H-indol-2-yl)methylene)indolin-2-one]	94.3%	34.1%	16%	7.21			
CCOC(=O)CCc1c(/C=C2\C(=O)Nc3ccc(NC(=O)c4ccc(F)cc4)cc32)[nH]c2c1C(=O)CCC2 [DCB-70074, (Z)-5-(4-fluorobenzamido)-3-((3-(3-ethoxy-3-oxopropyl)-4-oxo-4,5,6,7-tetrahydro-1H-indol-2-yl)methylene)indolin-2-one]	19.3%	15.1%	21.5%				
CCOC(=O)CCc1c(/C=C2\C(=O)Nc3cc(-c4ccc(F)cc4)ccc32)[nH]c2c1C(=O)CCC2 [DCB-70098, (Z)-6-(4-fluorophenyl)-3-((3-(3-ethoxy-3-oxopropyl)-4-oxo-4,5,6,7-tetrahydro-1H-indol-2-yl)methylene)indolin-2-one]	4%	19.5%	27.2%				
O=C(O)CCc1c(/C=C2\C(=O)Nc3ccc(F)cc32)[nH]c2c1C(=O)CCC2 [DCB-70055, (Z)-5-fluoro-3-((3-carboxyethyl-4-oxo-4,5,6,7-tetrahydro-1H-indol-2-yl)methylene)indolin-2-one]	79.8%	11.6%	21.7%	6.75		inhibited tumor growth in vivo	without inducing significant weight loss
O=C(O)CCc1c(/C=C2\C(=O)Nc3ccc(-c4cc5ccccc5s4)cc32)[nH]c2c1C(=O)CCC2 [DCB-70070, (Z)-5-(benzo[b]thiophen-2-yl)-3-((3-carboxyethyl-4-oxo-4,5,6,7-tetrahydro-1H-indol-2-yl)methylene)indolin-2-one]	31.4%	-2.7%	19.7%				
O=C(O)CCc1c(/C=C2\C(=O)Nc3ccc(NS(=O)(=O)c4ccccc4)cc32)[nH]c2c1C(=O)CCCC2 [DCB-70147, (Z)-3-(4-oxo-2-((2-oxo-5-(phenylsulfonamido)indolin-3-ylidene)methyl)-1,4,5,6,7,8-hexahydrocyclohepta[b]pyrrol-3-yl)propanoic acid]	91.9%	61.3%	0.2%	7.16			
O=C(O)CCc1c(/C=C2\C(=O)Nc3ccc(S(=O)(=O)Cc4c(Cl)cccc4Cl)cc32)[nH]c2c1C(=O)CCC2 [DCB-70073, (Z)-5-(2,6-dichlorobenzylsulfonyl)-3-((3-carboxyethyl-4-oxo-4,5,6,7-tetrahydro-1H-indol-2-yl)methylene)indolin-2-one]	65.5%	9.4%	91.6%				
O=C(O)CCc1c(/C=C2\C(=O)Nc3cc(Br)ccc32)[nH]c2c1C(=O)CCC2 [DCB-70133, (Z)-3-(2-((6-bromo-2-oxoindolin-3-ylidene)methyl)-4-oxo-4,5,6,7-tetrahydro-1H-indol-3-yl)propanoic acid]	2.6%	6%	3.3%				
CCN(CC)C(=O)CCc1c(/C=C2\C(=O)Nc3ccc(F)cc32)[nH]c2c1C(=O)CCC2 [DCB-70124, (Z)-N,N-diethyl-3-(2-((5-fluoro-2-oxoindolin-3-ylidene)methyl)-4-oxo-4,5,6,7-tetrahydro-1H-indol-3-yl)propanamide]	11.9%	1.4%	-0.8%				
C=CS(=O)(=O)c1ccc2c(c1)/C(=C/c1[nH]c3c(c1CCC(=O)O)C(=O)CCC3)C(=O)N2 [DCB-70115, (Z)-5-vinylsulfonyl-3-((3-carboxyethyl-4-oxo-4,5,6,7-tetrahydro-1H-indol-2-yl)methylene)indolin-2-one]	99.4%	32.5%	22.3%				
